Test results as given in PubChem BioAssay (NCI).
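How tested: cells in 96-well plates exposed to compound for 48 hours at five concentrations. TGI denotes the concentration required for complete inhibition of growth.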

What was measured:
Experiment in all cases: NCI anticancer screen, dose series, 48 h
SK-OV-3 ovarian = test system: SK-OV-3 ovarian
HCT-116 colon = test system: HCT-116 colon
HOP-62 NSCLC = test system: HOP-62 NSCLC
UO-31 renal = test system: UO-31 renal
DU-145 prostate = test system: DU-145 prostate
M14 melanoma = test system: M14 melanoma
A549 NSCLC = test system: A549 NSCLC
NCI-H226 lung = test system: NCI-H226 lung
OVCAR-3 ovarian = test system: OVCAR-3 ovarian
SNB-19 CNS = test system: SNB-19 CNS
NCI-H522 lung = test system: NCI-H522 lung
SW-620 colon = test system: SW-620 colon
NCI/ADR-RES ovarian = test system: NCI/ADR-RES ovarian
LOX IMVI melanoma = test system: LOX IMVI melanoma
HCC-2998 colon = test system: HCC-2998 colon
SK-MEL-28 melanoma = test system: SK-MEL-28 melanoma
HCT-15 colon = test system: HCT-15 colon
PC-3 prostate = test system: PC-3 prostate
MCF7 breast = test system: MCF7 breast

Row | Structure (SMILES) | TGI (SK-OV-3 ovarian) [µM] | TGI (HCT-116 colon) [µM] | TGI (HOP-62 NSCLC) [µM] | TGI (UO-31 renal) [µM] | TGI (DU-145 prostate) [µM] | TGI (M14 melanoma) [µM] | TGI (A549 NSCLC) [µM] | TGI (NCI-H226 lung) [µM] | TGI (OVCAR-3 ovarian) [µM] | TGI (SNB-19 CNS) [µM] | TGI (NCI-H522 lung) [µM] | TGI (SW-620 colon) [µM] | TGI (NCI/ADR-RES ovarian) [µM] | TGI (LOX IMVI melanoma) [µM] | TGI (HCC-2998 colon) [µM] | TGI (SK-MEL-28 melanoma) [µM] | TGI (HCT-15 colon) [µM] | TGI (PC-3 prostate) [µM] | TGI (MCF7 breast) [µM]
1 | C=C1C(=O)C=C2C=C3C(=O)C(C)(C)C[C@]3(O)C12C (some centres not stated) | 38.1 | 9 | 53.3 | 14 | 33.9 | 3.04 | 40.4 | 45.6 | 4.49 | 44.5 | 3.38 | 3.23 | > 100 | 11 | 34.4 | 6.76 | 11.7 | 10.2 | 
2 | CC(C)(C)OC(=O)C1/C(=C/CO)CN1C(=O)OC(C)(C)C (configuration not stated) | > 100 | > 100 | > 100 | > 100 |  | > 100 | > 100 |  | > 100 | > 100 |  | > 100 | > 100 | > 100 | > 100 | > 100 | > 100 | > 100 | > 100
3 | Cc1c(-c2ccccc2)n(C)c2cn[nH]c(=O)c12 | 61.2 | > 100 | 80.3 | > 100 | > 100 | > 100 | > 100 |  | 47.7 | > 100 | > 100 | > 100 | 69.4 | 38.3 | 85.8 | > 100 | > 100 | 51.3 | > 100
4 | COc1ccc(C2=C(OC(C)=O)c3cccn3-c3ccccc3S2)cc1 | > 10 |  | > 10 |  | > 10 | > 10 | > 10 |  |  |  |  | > 10 |  | > 10 | > 10 | > 10 | > 10 | > 10 | > 10
5 | CCCCc1ccc(Nc2nc(Cl)c3[nH]cnc3n2)cc1 | 99.8 | 29.9 | 27.8 | 72.5 | 61.8 | 41.5 | > 100 | > 100 | 28.9 | 43.5 | 65.3 | 37.4 | 47.7 | 26.6 | 41.2 |  | 34.4 |  | 37.9
6 | COC(=O)C(Cc1ccccc1)NS(=O)(=O)c1ccc(-c2c3nc(c(-c4ccc(S(=O)(=O)NC(Cc5ccccc5)C(=O)OC)cc4)c4ccc([nH]4)c(-c4ccc(S(=O)(=O)NC(Cc5ccccc5)C(=O)OC)cc4)c4nc(c(-c5ccc(S(=O)(=O)NC(Cc6ccccc6)C(=O)OC)cc5)c5ccc2[nH]5)C=C4)C=C3)cc1 (configuration not stated) | > 100 | > 100 | > 100 | > 100 | > 100 | > 100 | > 100 |  | > 100 | > 100 | > 100 | > 100 | > 100 | > 100 | > 100 | > 100 | > 100 | > 100 | > 100
7 | O=[N+]([O-])C(=C1Nc2ccccc2N1)C(Cl)=C(Cl)Cl | > 100 | > 100 | > 100 | > 100 | > 100 | > 100 | > 100 | > 100 | 53.1 | > 100 | > 100 | > 100 |  | > 100 | > 100 | > 100 | > 100 | > 100 | > 100
8 | C=CCSc1nn(CC=C)cc2ncnc1-2 |  | > 100 | > 100 | > 100 | > 100 | > 100 | > 100 | > 100 | > 100 | > 100 |  | > 100 | > 100 |  |  | > 100 | > 100 | > 100 | > 100
9 | COc1cc(Cn2c3c(c4cc(O)ccc42)C(=O)c2ccccc2C3=O)cc(OC)c1 | 6.68 | 12.7 | 8.78 | 30.4 | 60.6 | 67.5 | 49.6 |  | 77.7 | 25.4 | 12.5 | > 100 | 28.8 | > 100 | 37.3 | 28.4 | > 100 | 11.8 | 50.6
10 | COc1ccc(OC)c(C2CCc3cnc4nc(N)nc(N)c4c3C2)c1 (configuration not stated) | > 100 | > 100 | > 100 | 85.3 | > 100 | > 100 | > 100 |  | > 100 | > 100 | > 100 | > 100 | > 100 | > 100 | > 100 | > 100 | > 100 | > 100 | > 100
11 | COC(CNC(=O)C(C)NC(=O)C(C)NC(=O)c1ccccc1)OC (configuration not stated) | > 100 | > 100 |  |  | > 100 | > 100 | > 100 | > 100 |  |  | > 100 | > 100 | > 100 |  |  |  | > 100 | > 100 | > 100
12 | Cn1cc(-c2ccc(CCOC3CCCCO3)cc2)c2c(C#N)cccc21 (configuration not stated) | > 100 | > 100 | > 100 | > 100 | > 100 | > 100 | > 100 |  | > 100 | > 100 | > 100 | > 100 | > 100 | > 100 | > 100 | 42.4 | > 100 | > 100 | > 100
13 | OCCOCCO[P+]1(OCCOCCO)n2c3ccc2C(c2ccccc2)=C2C=CC(=N2)C(c2ccccc2)=c2ccc(n21)=C(c1ccccc1)C1=NC(=C3c2ccccc2)C=C1 | 1.79 | 0.358 |  |  | 1.72 | 1.38 | 3.29 |  | 0.158 |  | 0.448 | 1.31 | > 67.5 | 0.952 | 0.321 | 0.778 | 3.21 | 1.2 | 1.55
14 | CN1c2ccccc2C2c3c(O)ccc(O)c3C=C([N+](=O)[O-])C21 (configuration not stated) | 13.5 | 0.651 | 5.96 | 2.1 |  | 1.44 | 3.57 | > 92.9 |  | 2.03 | 0.17 |  | > 20 |  | 2.8 | 11.3 | 6.41 | 4.79 | 0.346
15 | CNC(Cc1ccccc1)c1cccc(OC)c1O (configuration not stated) |  | > 100 | > 100 | > 100 | > 100 | > 100 | > 100 | > 100 | > 100 | > 100 | > 100 | > 100 | > 100 | > 100 |  | > 100 | > 100 | > 100 | 
16 | COc1cccc(/C=N/n2c(-c3ccccc3)n[nH]c2=O)c1 | > 100 | > 100 | 63.5 | > 100 | > 100 | > 100 | > 100 | > 100 | > 100 | > 100 |  | > 100 | > 100 |  | > 100 | > 100 | > 100 | > 100 | > 100
17 | Cc1sc(N=Nc2c(O)[nH]c3ccccc23)nc1-c1ccccc1 | 33.6 | 35.1 | 33.1 | 29.9 | 24.8 | 65.2 | 32.6 | > 100 | 27.2 | 37.3 |  | 71.4 | 44.7 | 36 | 51.1 | 79.8 | 27.9 |  | 45.1
18 | Cc1ccc(N2C(=O)/C(=c3\s/c(=C(/N)O)c(=N)n3-c3ccccc3)SC2=S)cc1 | > 100 | > 100 | > 100 | > 100 |  |  | > 100 | > 100 | > 100 | > 100 | > 100 | > 100 |  |  | > 100 | > 100 |  |  | 
19 | c1ccc(C2CC(N3CCOCC3)=Nc3ccccc3N2)cc1 (configuration not stated) | > 100 | > 100 | > 100 | > 100 | > 100 | > 100 | > 100 | > 100 | > 100 | > 100 | > 100 | > 100 | > 100 |  |  | > 100 | > 100 | > 100 | 
20 | CC(C)(C)OC(=O)C(C1NC(C(=O)O)C(C)(C)S1)N1C(=O)c2ccccc2C1=O (configuration not stated) | > 100 | > 100 | > 100 | > 100 | > 100 | > 100 | > 100 |  | > 100 | > 100 | > 100 | > 100 | > 100 | > 100 | > 100 | > 100 | > 100 | > 100 | > 100
21 | CCNC1CC(C(C)(C)NCC)CC=C1C (configuration not stated) | > 100 | > 100 | > 100 | > 100 | > 100 | > 100 | > 100 |  | > 100 | > 100 | > 100 | > 100 | > 100 | > 100 | > 100 | > 100 | > 100 | > 100 | > 100
